Assay results from article PMC7361990, “Molecular Basis for Ser/Thr Specificity in PKA Signaling” (Cells, 2020).

How the values were obtained:
PKA = conditions: cited from earlier work
Excerpt: The PKA C subunit is a classic example for a Ser/Thr kinase with serine specificity and this preference is highly conserved among different species. PKA can select target substrates according to the consensus sequence RRXS*/T*Y, where X is any residue, and Y is a hydrophobic residue.

PKA Cα wt = target: T1, PKA Cα wt (Homo sapiens, UniProt P17612); assay: Coupled spectrophotometric kinase assay; format: biochemical; conditions: for Km / kcat: 20 nM kinase with S-Kemptide, 50 nM with T-Kemptide, SD; for Km / kcat / kcat/KM: mean ± SD of at least three independent measurements; for kcat/KM: catalytic efficiency
T1 construct: made in house
Method: (§1) To determine the Michaelis-Menten constant (KM) and the turnover number (kcat) of purified PKA Cα wt and the DFG+1 mutants for the peptide substrate Kemptide, a coupled spectrophotometric assay was used. As we were interested in the substrate specificity of the kinase, we tested two different peptide substrates: S-Kemptide (LRRASLG) as a serine substrate and T-Kemptide (LRRATLG) as a threonine substrate (GeneCust, Boynes, France). 50 nM PKA Cα wt were used when measured with T-Kemptide and 20 nM wt, F187I, or F187T when measured with S-Kemptide. In all other assays, the final kinase concentration was 10 nM of the respective kinase. All kinases were measured with a minimum of three independent replicates. The calculated turnover was plotted against the […] and analyzed with GraphPad Prism 8.0 (GraphPad Software, San Diego, CA, USA).

PKA Cα F187I = target: T2, PKA Cα F187I (Homo sapiens, UniProt P17612, F188I); assay: Coupled spectrophotometric kinase assay; format: biochemical; conditions: mean ± SD of at least three independent measurements; for Km / kcat: 20 nM kinase with S-Kemptide, 10 nM with T-Kemptide, SD; for kcat/KM: catalytic efficiency
T2 construct: made in house
Method: as §1

PKA Cα F187T = target: T3, PKA Cα F187T (Homo sapiens, UniProt P17612, F188T); assay: Coupled spectrophotometric kinase assay; format: biochemical; conditions: mean ± SD of at least three independent measurements; for Km / kcat: 20 nM kinase with S-Kemptide, 10 nM with T-Kemptide, SD; for kcat/KM: catalytic efficiency
T3 construct: made in house
Method: as §1

## GRTGRRNSI [peptide derived from PKI with a serine introduced at the P0 position]
PKA
  higher catalytic efficiency than Kemptide: more than 70 fold

## LRRATLG [T-Kemptide, LRRATLG, threonine peptide substrate]
PKA Cα wt
  Km: 861 ± 184 µM
  kcat: 7.5 ± 0.8 s⁻¹
  kcat/KM: 0.09 ± 0.02 ×10^5 M^−1s^−1
PKA Cα F187I
  Km: 19.8 ± 3.3 µM
  kcat: 43.0 ± 4.7 s⁻¹
  kcat/KM: 22.1 ± 4.5 ×10^5 M^−1s^−1
PKA Cα F187T
  Km: 25 ± 3.4 µM
  kcat: 37.1 ± 4.5 s⁻¹
  kcat/KM: 14.9 ± 0.6 ×10^5 M^−1s^−1

## LRRASLG [S-Kemptide, heptapeptide (LRRASLG), canonical serine substrate of PKA derived from the porcine liver pyruvate kinase]
PKA Cα wt
  Km: 19.8 ± 3.9 µM
  kcat: 19.8 ± 1.0 s⁻¹
  kcat/KM: 10.3 ± 1.7 ×10^5 M^−1s^−1
PKA Cα wt; S-Kemptide versus T-Kemptide
  higher catalytic efficiency (kcat/KM) for the serine substrate peptide compared to T-Kemptide: more than 100 fold
PKA Cα F187I
  Km: 92.2 ± 3.8 µM
  kcat: 25.4 ± 5.8 s⁻¹
  kcat/KM: 2.8 ± 0.8 ×10^5 M^−1s^−1
PKA Cα F187T
  Km: 23 ± 3.1 µM
  kcat: 15.7 ± 0.3 s⁻¹
  kcat/KM: 6.9 ± 1.2 ×10^5 M^−1s^−1
